Publication PMC10590056, “Design and synthesis of cabotegravir derivatives bearing 1,2,3-triazole and evaluation of anti-liver cancer activity” (Frontiers in Pharmacology, 2023)
Where “and” joins values, the source holds several entries; their conditions need not be identical. Equal entries are not always repeated. Where two headings read alike, the source gives them in different places.

What was measured:
Format in all cases: cell-based
HepG2 cells [1] = assay: MTT assay for cell proliferation and cytotoxicity, HepG2; set-up: key to Inhibitory rate: inhibition rate = 1 - mean A490 sample/mean A490 control (fraction); conditions: for Inhibitory rate / ODtreated/ODcontrol / inhibition at 4 µM: HepG2; for Inhibitory rate / ODtreated/ODcontrol: fraction, per experiment; for inhibition at 4 µM / IC50 / inhibition at 16 µM: Homo sapiens; for inhibition at 4 µM: liver cancer cells, read-out: Inhibition rate on liver cancer cells; for IC50: HepG2, 48 h, MTT; for inhibition at 16 µM: preliminary screening, HepG2, 16 μM, 48 h, mean±SD, unit inferred, read-out: Inhibition rate (16μM), 48 h, HepG2
Outline: (§1)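 Cells grown in DMEM with 10% FBS at 37 °C, 5% CO2, seeded at 10^5 cells/mL and exposed to KJ-5 or KJ-12 at 0–32 μM for 48 h. MTT added for 4 h, formazan dissolved in DMSO, A490 read; inhibition = (1 − sample/control A490) × 100%.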

HepG2 cells [2] = assay: Transwell invasion assay (Matrigel); conditions: HepG2, 24 h treatment, vs control
Method: (§2) HepG2 cells were treated with either KJ-5 or KJ-12 for 24 h. Then, the cells were suspended and seeded into the upper chamber of a 24-well Transwell plate (Corning Inc., United States) in serum-free medium. The cells were cultured for 24 h at 37°C; a medium containing 20% FBS as a chemoattractant was added to the lower chamber. HepG2 cells that had invaded through the membrane were fixed with 4% paraformaldehyde for 20 min and stained with 0.1% crystal violet. Five random fields were then imaged and quantified using an inverted fluorescence microscope (Axio Observer3, Germany). To assess invasion, transwell assays were performed in a similar manner, with the exception of coating the upper chamber of the Transwell with 100 μL of diluted Matrigel solution per well.

[3] = test system: Bcl-2, Bax, cleaved caspase-9, cleaved caspase-3, cleaved PARP in HepG2 cells; assay: Western blot of mitochondrial apoptotic proteins; conditions: for Bax levels / Bax/Bcl-2 ratio / Bcl-2 protein levels: HepG2, 2, 4 or 8 μM, 24 h; for Expression of cleaved PARP / Expression of cleaved caspase-3 / Expression of cleaved caspase-9: HepG2, vs control
Method: After being pretreated with either KJ-5 or KJ-12 at concentrations of 2, 4, or 8 μM for 24 h, the cells were harvested and lysed using an ice-cold cell lysis buffer from Beyotime Biotechnology (Shanghai, China). The proteins were mixed with a loading buffer and denatured by heating at 95°C–100°C for 5–10 min. Equal amounts of protein were loaded onto a 10% SDS-PAGE gel along with a molecular weight marker and separated by electrophoresis for 2 h. The separated proteins were transferred onto a PVDF membrane, which was blocked with 5% non-fat milk for non-specific binding sites on the membrane. Then, the membrane was incubated with primary antibodies at 4°C overnight. Following incubation with the primary antibody, the membrane was incubated with HRP-conjugated goat anti-rabbit or goat anti-mouse IgG at 37°C for 1 h. Protein bands were visualized on the PVDF membrane using an ECL hypersensitive chemiluminescence solution and a Bio-Rad gel imaging and analysis system.

HepG2 cells [4] = assay: Transwell migration assay (without Matrigel); conditions: HepG2, 24 h treatment, vs control
Method: as §2

MCF-7 cells = assay: MTT assay for cell proliferation, MCF-7; set-up: key to Inhibitory rate / Inhibition rate: inhibition rate = 1 - mean A490 sample/mean A490 control (fraction); conditions: for inhibition at 16 µM: MCF7, preliminary screening, MCF-7, 16 μM, 48 h, mean±SD, read-out: Inhibition rate (16μM), 48 h, MCF-7
Outline: as §1

p-H2AX in HepG2 cells = assay: H2AX phosphorylation by immunofluorescence and Western blotting; conditions: HepG2, 24 h
Method: HepG2 cells were plated in laser confocal dishes (Nest, China), followed by the addition of KJ-5 or KJ-12 for 24 h. Then, 4% paraformaldehyde was added to each laser confocal dish for 20 min after rinsing with PBS. Before the goat serum was added to block for 1 h, 0.5% Triton X-100 was used to penetrate HepG2 for 30 min. Subsequently, the cells were incubated with p-H2AX (Cell Signaling Technology, MA, United States) at a 1:800 dilution at 4°C overnight. The cells were rinsed with PBS and incubated with Alexa Fluor 488 (Proteintech, Wuhan, China) at a 1:1000 dilution in dark at room temperature for 1 h. DAPI was used to stain the cell nucleus for 5 min. Then, the cells were rinsed with PBS before observing the cells under a laser confocal microscope (Nikon, Tokyo, Japan).
After being pretreated with either KJ-5 or KJ-12 at concentrations of 2, 4, or 8 μM for 24 h, the cells were harvested and lysed using an ice-cold cell lysis buffer from Beyotime Biotechnology (Shanghai, China). The proteins were mixed with a loading buffer and denatured by heating at 95°C–100°C for 5–10 min. Equal amounts of protein were loaded onto a 10% SDS-PAGE gel along with a molecular weight marker and separated by electrophoresis for 2 h. The separated proteins were transferred onto a PVDF membrane, which was blocked with 5% non-fat milk for non-specific binding sites on the membrane. […]

HepG2 cells [5] = assay: Annexin V-FITC/PI staining for cell apoptosis (flow cytometry); conditions: 24 h; for Proportion of apoptotic cells: Annexin-V/PI; for Cell apoptosis (in words): HepG2, 2, 4, 8 μM
Method: HepG2 cells were plated in a 6-well plate at a density of 5 × 10^6 cells/well and incubated for 24 h. Then, the original culture medium was replaced with 2 mL DMEM containing KJ-5 or KJ-12 (2, 4, and 8 μM) and incubated for 24 h. After incubation with KJ-5 or KJ-12, the cells were washed with cold PBS and then resuspended in 100 µL binding buffer at a concentration of 1 × 10^6 cells/mL. Then, 5 μl of FITC Annexin V and 5 µl of PI were added to the solution. The cells were gently vortexed and incubated for 15 min at room temperature (25°C) in the dark. Subsequently, 400 µL binding buffer was added to each tube, and the samples were analyzed by flow cytometry (BD Accuri™ C6 Plus) within 1 h.

[6] = Homo sapiens, MCF7, 48 h, MCF-7, 48 h, MTT, read-out: IC50 MCF-7
[7] = Homo sapiens, MCF7, MCF-7, one of three experiments, unit inferred, read-out: IC50, single experiment, MCF-7
[8] = MCF-7, group 1 (concentration), fraction, single experiments
[9] = MCF-7, group 1 (concentration), single experiments
[10] = MCF-7, group 2 (concentration), fraction, single experiments
[11] = MCF-7, group 2 (concentration), single experiments
[12] = MCF-7, group 4 (concentration), fraction, single experiments
[13] = MCF-7, group 4 (concentration), single experiments
[14] = MCF-7, group 8 (concentration), fraction, single experiments
[15] = MCF-7, group 8 (concentration), single experiments
[16] = MCF-7, group 16 (concentration), fraction, single experiments
[17] = MCF-7, group 16 (concentration), single experiments
[18] = MCF-7, group 32 (concentration), fraction, single experiments
[19] = MCF-7, group 32 (concentration), single experiments
[20] = MCF-7, one of three experiments, unit inferred, read-out: IC50, single experiment, MCF-7
[21] = MCF-7, fraction, per experiment
[22] = given as fraction, second of three experiments
[23] = given as fraction, third of three experiments

COc1c2n(cc(C(=O)Nc3cccc(-c4cn(-c5cc(C(F)(F)F)cc(C(F)(F)F)c5)nn4)c3)c1=O)C[C@H]1OC[C@H](C)N1C2=O [KJ-5] was tested, and the Inhibitory rate (HepG2 cells [1]) was 0.8445 and 0.8592 and 0.8525, the ODtreated/ODcontrol (HepG2 cells [1]) was 0.1555 and 0.1408 and 0.1475 and the inhibition at 4 µM (HepG2 cells [1]) was about 50%. The IC50 (HepG2 cells [1]) was 4.29 ± 0.1 µM, the inhibition at 16 µM (HepG2 cells [1]) was 85.21 ± 0.73% and the “Invasion of HepG2 cells (transwell with Matrigel)” value (HepG2 cells [2]) was “significantly impaired”. The Bax levels [3] was “increased”, the Bax/Bcl-2 ratio [3] was “increased” and the Bcl-2 protein levels [3] was “decreased”. The “Expression of cleaved PARP” value [3] was “significantly increased”, the “Expression of cleaved caspase-3” value [3] was “significantly increased” and the “Expression of cleaved caspase-9” value [3] was “significantly increased”. The “Migration of HepG2 cells (transwell without Matrigel)” value (HepG2 cells [4]) was “significantly impaired”, the IC50 (MCF-7 cells; [6]) was 8.41 ± 0.14 µM and the IC50 (MCF-7 cells; [7]) was 8.56 µM. For the same compound, the inhibition at 16 µM (MCF-7 cells; Homo sapiens, unit inferred) was 62.6 ± 1.76%, the Inhibitory rate (MCF-7 cells; [8]) was 0.147 and 0.1313 and 0.1401 and the ODtreated/ODcontrol (MCF-7 cells; [9]) was 0.853 and 0.8687 and 0.8599. The Inhibitory rate (MCF-7 cells; [10]) was 0.1769 and 0.1986 and 0.2186, the ODtreated/ODcontrol (MCF-7 cells; [11]) was 0.8231 and 0.8014 and 0.7814 and the Inhibitory rate (MCF-7 cells; [12]) was 0.4303 and 0.4175 and 0.4002. For the same compound, the ODtreated/ODcontrol (MCF-7 cells; [13]) was 0.5697 and 0.5825 and 0.5998, the Inhibitory rate (MCF-7 cells; [14]) was 0.509 and 0.5265 and 0.5019 and the ODtreated/ODcontrol (MCF-7 cells; [15]) was 0.491 and 0.4735 and 0.4981. The Inhibitory rate (MCF-7 cells; [16]) was 0.5958 and 0.5893 and 0.6098, the ODtreated/ODcontrol (MCF-7 cells; [17]) was 0.4042 and 0.4107 and 0.3902 and the Inhibitory rate (MCF-7 cells; [18]) was 0.7196 and 0.7385 and 0.7334. The ODtreated/ODcontrol (MCF-7 cells; [19]) was 0.2804 and 0.2615 and 0.2666, the IC50 (MCF-7 cells; [20]) was 8.29 µM and 8.37 µM and the Inhibitory rate (MCF-7 cells; [21]) was 0.6368. The ODtreated/ODcontrol (MCF-7 cells; [21]) was 0.3632, the Inhibitory rate (MCF-7 cells; [22]) was 0.6364 and the Inhibition rate (MCF-7 cells; [23]) was 0.6061. For the same compound, the ODtreated/ODcontrol (MCF-7 cells; second of three experiments) was 0.3635, the ODtreated/ODcontrol (MCF-7 cells; third of three experiments) was 0.3939 and the “Expression of p-H2AX (DNA damage marker)” value (p-H2AX in HepG2 cells) was “increased the expression of p-H2AX”. The “Proportion of apoptotic cells” value (HepG2 cells [5]; HepG2, 2 μM) was 21.8 ± 1.3%, the “Proportion of apoptotic cells” value (HepG2 cells [5]; HepG2, 4 μM) was 30.9 ± 1.4% and the “Proportion of apoptotic cells” value (HepG2 cells [5]; HepG2, 8 μM) was 52.7 ± 1.7%. For the same compound, the “Cell apoptosis (in words)” value (HepG2 cells [5]) was “significantly caused cell apoptosis in a concentration-dependent manner”.

In the case of COc1c2n(cc(C(=O)Nc3cccc(-c4cn(-c5c(C)cc(C)cc5C)nn4)c3)c1=O)C[C@H]1OC[C@H](C)N1C2=O [KJ-12], the Inhibitory rate (HepG2 cells [1]) is reported as 0.742 and 0.7786 and 0.787, the ODtreated/ODcontrol (HepG2 cells [1]) is reported as 0.258 and 0.2214 and 0.213 and the inhibition at 4 µM (HepG2 cells [1]) is reported as about 50%. The IC50 (HepG2 cells [1]) was 4.07 ± 0.09 µM, the inhibition at 16 µM (HepG2 cells [1]) was 76.9 ± 2.4% and the “Invasion of HepG2 cells (transwell with Matrigel)” value (HepG2 cells [2]) was “significantly impaired”. The Bax levels [3] was “increased”, the Bax/Bcl-2 ratio [3] was “increased” and the Bcl-2 protein levels [3] was “decreased”. The “Expression of cleaved PARP” value [3] was “significant increase”, the “Expression of cleaved caspase-3” value [3] was “significant increase” and the “Expression of cleaved caspase-9” value [3] was “significant increase”. The “Migration of HepG2 cells (transwell without Matrigel)” value (HepG2 cells [4]) was “significantly impaired”, the IC50 (MCF-7 cells; [6]) was 8.55 ± 0.6 µM and the IC50 (MCF-7 cells; [7]) was 9.23 µM. For the same compound, the inhibition at 16 µM (MCF-7 cells; Homo sapiens, unit inferred) was 54.7 ± 1.79%, the Inhibitory rate (MCF-7 cells; [8]) was 0.2053 and 0.2025 and 0.1943 and the ODtreated/ODcontrol (MCF-7 cells; [9]) was 0.7947 and 0.7975 and 0.8057. The Inhibitory rate (MCF-7 cells; [10]) was 0.2385 and 0.2481 and 0.2879, the ODtreated/ODcontrol (MCF-7 cells; [11]) was 0.7615 and 0.7519 and 0.7121 and the Inhibitory rate (MCF-7 cells; [12]) was 0.3137 and 0.3313 and 0.3802. The ODtreated/ODcontrol (MCF-7 cells; [13]) was 0.6863 and 0.6687 and 0.6198, the Inhibitory rate (MCF-7 cells; [14]) was 0.4877 and 0.4713 and 0.472 and the ODtreated/ODcontrol (MCF-7 cells; [15]) was 0.5123 and 0.5287 and 0.528. For the same compound, the Inhibitory rate (MCF-7 cells; [16]) was 0.5949 and 0.6244 and 0.5636, the ODtreated/ODcontrol (MCF-7 cells; [17]) was 0.4051 and 0.3756 and 0.4364 and the Inhibitory rate (MCF-7 cells; [18]) was 0.7215 and 0.7706 and 0.7971. The ODtreated/ODcontrol (MCF-7 cells; [19]) was 0.2785 and 0.2294 and 0.2029, the IC50 (MCF-7 cells; [20]) was 8.35 µM and 8.08 µM and the Inhibitory rate (MCF-7 cells; [21]) was 0.5407. It also gave an ODtreated/ODcontrol (MCF-7 cells; [21]) of 0.4593, an Inhibitory rate (MCF-7 cells; [22]) of 0.5326 and an Inhibition rate (MCF-7 cells; [23]) of 0.5669. For the same compound, the ODtreated/ODcontrol (MCF-7 cells; second of three experiments) was 0.4674, the ODtreated/ODcontrol (MCF-7 cells; third of three experiments) was 0.4331 and the “Expression of p-H2AX (DNA damage marker)” value (p-H2AX in HepG2 cells) was “increased the expression of p-H2AX”. For the same compound, the “Proportion of apoptotic cells” value (HepG2 cells [5]; HepG2, 2 μM) was 21.2 ± 1.4%, the “Proportion of apoptotic cells” value (HepG2 cells [5]; HepG2, 4 μM) was 30.5 ± 1.1% and the “Proportion of apoptotic cells” value (HepG2 cells [5]; HepG2, 8 μM) was 44.4 ± 1.9%. The “Cell apoptosis (in words)” value (HepG2 cells [5]) was “significantly caused cell apoptosis in a concentration-dependent manner”.
